pIC50: −log10 of the molar value. Bounds are passed on as bounds.

PRS (prolyl-tRNA synthetase) protein, PRS portion of EPRS, sequence (P07814 1007-1512): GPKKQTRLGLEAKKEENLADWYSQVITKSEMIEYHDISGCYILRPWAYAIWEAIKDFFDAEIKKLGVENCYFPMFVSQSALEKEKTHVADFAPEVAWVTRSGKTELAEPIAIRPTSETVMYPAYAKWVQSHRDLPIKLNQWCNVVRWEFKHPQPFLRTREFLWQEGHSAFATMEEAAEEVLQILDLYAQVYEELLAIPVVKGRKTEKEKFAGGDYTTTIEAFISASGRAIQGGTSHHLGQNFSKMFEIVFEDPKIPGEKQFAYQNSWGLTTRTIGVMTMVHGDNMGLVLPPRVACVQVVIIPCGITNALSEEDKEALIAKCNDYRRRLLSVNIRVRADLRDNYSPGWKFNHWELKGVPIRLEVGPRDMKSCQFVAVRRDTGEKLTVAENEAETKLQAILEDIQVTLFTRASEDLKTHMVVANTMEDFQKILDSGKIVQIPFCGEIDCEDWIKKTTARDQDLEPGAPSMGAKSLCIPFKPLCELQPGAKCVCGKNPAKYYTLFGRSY

The assay has as its target PRS (prolyl-tRNA synthetase) protein, PRS portion of EPRS (Homo sapiens (Human), UniProt P07814). Description: PRS enzyme activity inhibition experiment ([3H]proline, liquid scintillation). As to conditions: purified PRS protein, 37° C. for 5 to 10 minutes. In kind it is biochemical. On the procedure: In order to confirm the biological activities of the compounds prepared in Examples, % inhibition or IC50 values of PRS enzyme ([…]) activities were calculated.
Specifically, the portion corresponding to PRS in cDNA of EPRS was subcloned, and the obtained high-purity PRS protein was purified and used in the experiment. The compounds (1 μM) prepared in Examples were added into the reaction buffer (20 mM KPO4 (pH 7.4), 6 mM MgAc, 5 mM ATP, […] tRNA, 0.5 mM DTT, […][^3H]proline (1 mCi/mL)) and allowed to react at 37° C. for 5 to 10 minutes. The reaction was terminated with 3M paper that was in advance dried by addition of 5% TCA. The radioactivity was measured using a liquid scintillation counter.
% Inhibition and IC50 values of the respective compounds were calculated and analyzed using Microsoft Excel or Sigma Plot 8.0. In Tables 1 to 3, the results are divided into A, B and C according to the range of IC50. The case where the derived IC50 is 100 nM or less is represented by “A”, the case where the IC50 is 100 to 500 nM is represented by “B”, and the case where the IC50 is 500 nM or higher is represented by “C”.
For the compound `CCOC(=O)c1cc(-c2cc(Cl)cc3ncn(CCC[C@H]4NCCC[C@@H]4O)c23)cn1C` [Example 116, ethyl 4-(5-chloro-1-(3-((2R,3S)-3-hydroxypiperidin-2-yl)propyl)-1H-benzo[d]imidazol-7-yl)-1-methyl-1H-pyrrole-2-carboxylate], the pIC50 (commonly the negative decadic logarithm of the IC50, by convention in mol/L) was at least 7.00.
Consider `Cc1c(Br)ccc2c1ncn2C/C=C/[C@H]1NCCC[C@@H]1O` [Example 168, (2R,3S)-2-((E)-3-(5-bromo-4-methyl-1H-benzo[d]imidazol-1-yl)prop-1-enyl)piperidin-3-ol], for which the negative logarithm of the IC50 (pIC50) is 6.30 to 7.00.
`O[C@H]1CCCN[C@@H]1CCCn1cnc2cc(C(F)(F)F)cc(Cl)c21` [Example 78, (2R,3S)-2-(3-(7-chloro-5-(trifluoromethyl)-1H-benzo[d]imidazol-1-yl)propyl)piperidin-3-ol]: the pIC50 was 6.30 to 7.00.
The result for `O[C@H]1CCCN[C@@H]1CCCn1cnc2c(-c3cccc(Cl)c3)cccc21` [Example 21, (2R,3S)-2-(3-(4-(3-chlorophenyl)-1H-benzo[d]imidazol-1-yl)propyl)piperidin-3-ol] reads at most 6.30.
As for `OCc1nc2ccccc2n1CCC[C@H]1NCCC[C@@H]1O` [Example 145, (2R,3S)-2-(3-(2-(hydroxymethyl)-1H-benzo[d]imidazol-1-yl)propyl)piperidin-3-ol], the pIC50 is at most 6.30.
With `Cc1ccc2ncn(CCC[C@H]3NCCC[C@@H]3O)c2c1` [Example 13, (2R,3S)-2-(3-(6-methyl-1H-benzo[d]imidazol-1-yl)propyl)piperidin-3-ol], the negative-log IC50 (pIC50) is at most 6.30.
In turn, `O[C@H]1CCCN[C@@H]1CCCn1cnc2c(F)cc(F)cc21` [Example 57, (2R,3S)-2-(3-(4,6-difluoro-1H-benzo[d]imidazol-1-yl)propyl)piperidin-3-ol] gave a negative logarithm of the IC50 (pIC50) of at most 6.30.
In the case of `O=C(O)c1cn(C/C=C/[C@H]2NCCC[C@@H]2O)c2c(Br)cccc12` [Example 203, 7-bromo-1-((E)-3-((2R,3S)-3-hydroxypiperidin-2-yl)allyl)-1H-indole-3-carboxylic acid], the negative logarithm of the IC50 (pIC50) is at most 6.30.
In turn, `O[C@H]1CCCN[C@@H]1CCCn1cnc2cc(C(F)(F)F)cc(Br)c21` [Example 71, (2R,3S)-2-(3-(7-bromo-5-(trifluoromethyl)-1H-benzo[d]imidazol-1-yl)propyl)piperidin-3-ol] gave a pIC50 of 6.30 to 7.00.
For `O[C@H]1CCCN[C@@H]1CCCn1cnc2cc(Cl)cc(-c3cnn(C4COC4)c3)c21` [Example 102, (2R,3S)-2-(3-(5-chloro-7-(1-(oxetan-3-yl)-1H-pyrazol-4-yl)-1H-benzo[d]imidazol-1-yl)propyl)piperidin-3-ol], the pIC50 is 6.30 to 7.00.
With `CC(C)n1cc(-c2cc(Cl)cc3ncn(CCC[C@H]4NCCC[C@@H]4O)c23)cn1` [Example 108, (2R,3S)-2-(3-(5-chloro-7-(1-isopropyl-1H-pyrazol-4-yl)-1H-benzo[d]imidazol-1-yl)propyl)piperidin-3-ol], the negative logarithm of the IC50 (pIC50) is 6.30 to 7.00.
In turn, `O[C@H]1CCCN[C@@H]1CCCn1cnc2cnc(Cl)nc21` [Example 136, (2R,3S)-2-(3-(2-chloro-9H-purin-9-yl)propyl)piperidin-3-ol] gave a pIC50 of at most 6.30.
For `COC(=O)c1cn(CCC[C@H]2NCCC[C@@H]2O)c2cccc(Cl)c12` [Example 152, methyl 4-chloro-1-(3-((2R,3S)-3-hydroxypiperidin-2-yl)propyl)-1H-indole-3-carboxylate], the negative-log IC50 (pIC50) was at most 6.30.
For the compound `Cc1cc2c(cc1F)ncn2CCC[C@H]1NCCC[C@@H]1O` [Example 39, (2R,3S)-2-(3-(5-fluoro-6-methyl-1H-benzo[d]imidazol-1-yl)propyl)piperidin-3-ol], the pIC50 is 6.30 to 7.00.
`O[C@H]1CCCN[C@@H]1CCCn1cnc2ccc(Cl)cc21` [Example 1, (2R,3S)-2-(3-(6-chloro-1H-benzo[d]imidazol-1-yl)propyl)piperidin-3-ol] gave a pIC50 of 6.30 to 7.00.
The result for `O[C@H]1CCCN[C@@H]1/C=C/CN1CCc2ccccc21` [Example 194, (2R,3S)-2-((E)-3-(indolin-1-yl)prop-1-en-1-yl)piperidin-3-ol] reads at most 6.30.
With `O[C@H]1CCCN[C@@H]1CCCn1cnc2c(N3CCOCC3)ncnc21` [Example 140, (2R,3S)-2-(3-(6-morpholino-9H-purin-9-yl)propyl)piperidin-3-ol], the negative logarithm of the IC50 (pIC50) was at most 6.30.
`Cc1c(Br)ccc2c1ncn2CC#C[C@H]1NCCC[C@@H]1O` [Example 226, (2R,3S)-2-(3-(5-bromo-4-methyl-1H-benzo[d]imidazol-1-yl)prop-1-yn-1-yl)piperidin-3-ol] showed a pIC50 of at most 6.30.
`O[C@H]1CCCN[C@@H]1CCCn1cnc2cc(Cl)cc(-c3ccsc3)c21` [Example 91, (2R,3S)-2-(3-(5-chloro-7-(thiophen-3-yl)-1H-benzo[d]imidazol-1-yl)propyl)piperidin-3-ol] had a pIC50 of at least 7.00.
With `Cn1cc(-c2cc(Cl)cc3ncn(CCC[C@H]4NCCC[C@@H]4O)c23)ccc1=O` [Example 88, 5-(5-chloro-1-(3-((2R,3S)-3-hydroxypiperidin-2-yl)propyl)-1H-benzo[d]imidazol-7-yl)-1-methylpyridin-2(1H)-one], the pIC50 was at most 6.30.
Consider `O=[N+]([O-])c1ccc2c(ncn2C/C=C/[C@H]2NCCC[C@@H]2O)c1Cl` [Example 178, (2R,3S)-2-((E)-3-(4-chloro-5-nitro-1H-benzo[d]imidazol-1-yl)prop-1-en-1-yl)piperidin-3-ol], for which the negative logarithm of the IC50 (pIC50) is 6.30 to 7.00.
The figure for `O[C@H]1CCCN[C@@H]1CCCn1cnc2nc(Cl)ccc21` [Example 117, (2R,3S)-2-(3-(5-chloro-1H-imidazo[4,5-b]pyridin-1-yl)propyl)piperidin-3-ol] is 6.30 to 7.00; for `O[C@H]1CCCN[C@@H]1/C=C/Cn1cnc2cc(C(F)(F)F)cc(Cl)c21` [Example 181, (2R,3S)-2-((E)-3-(7-chloro-5-(trifluoromethyl)-1H-benzo[d]imidazol-1-yl)prop-1-en-1-yl)piperidin-3-ol] it is 6.30 to 7.00.
`Cc1ccc2c(ncn2C/C=C/[C@H]2NCCC[C@@H]2O)c1Cl` [Example 175, (2R,3S)-2-((E)-3-(4-chloro-5-methyl-1H-benzo[d]imidazol-1-yl)prop-1-en-1-yl)piperidin-3-ol] showed a negative logarithm of the IC50 (pIC50) of 6.30 to 7.00.
`Cn1cc(-c2cc(Cl)cc3ncn(CCC[C@H]4NCCC[C@@H]4O)c23)cn1` [Example 97, (2R,3S)-2-(3-(5-chloro-7-(1-methyl-1H-pyrazol-4-yl)-1H-benzo[d]imidazol-1-yl)propyl)piperidin-3-ol] gave a pIC50 of at least 7.00.
The compound `COC(=O)c1cn(C/C=C/[C@H]2NCCC[C@@H]2O)c2c(Cl)cccc12` [Example 212, methyl 7-chloro-1-((E)-3-((2R,3S)-3-hydroxypiperidin-2-yl)allyl)-1H-indole-3-carboxylate] gave a negative logarithm of the IC50 (pIC50) of at most 6.30.
For the compound `O[C@H]1CCCN[C@@H]1CCCn1cnc2cccc(-c3ccccc3F)c21` [Example 26, (2R,3S)-2-(3-(7-(2-fluorophenyl)-1H-benzo[d]imidazol-1-yl)propyl)piperidin-3-ol], the negative logarithm of the IC50 (pIC50) was at most 6.30.
`Cc1c(Br)ccc2c1ncn2C/C(F)=C/[C@H]1NCCC[C@@H]1O` [Example 218, (2R,3S)-2-((Z)-3-(5-bromo-4-methyl-1H-benzo[d]imidazol-1-yl)-2-fluoroprop-1-en-1-yl)piperidin-3-ol] showed a pIC50 of at most 6.30.

Values taken from patent US10981917B2, “Heterocyclic compound, its preparation method, and pharmaceutical composition comprising the same” (Daewoong Pharmaceutical Co., Ltd., priority 2017, dated 2021).
